Results as given in ChEMBL document CHEMBL1201862, “PubChem BioAssay data set” (2004).
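Growth conditions: 96-well plates. Treatment: test compound, 48 hours, 5 concentrations. Analysis: linear interpolation between bracketing concentrations; unreached endpoints set to highest concentration. Here, GI50 denotes the concentration required for 50% inhibition of growth.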 The source made the active and inactive calls. No stated cut-off is given here; in the data, active = GI50 up to about 1.1 µM and inactive = higher.

Key:
Assay in all cases: NCI tumour cell line growth inhibition, 48 h
XF498 = tested on: XF498
KM-20L2 = tested on: KM-20L2
RXF 631 = tested on: RXF 631
DMS-273 = tested on: DMS-273
SNB-78 = tested on: SNB-78
M19-MEL = tested on: M19-MEL
HOP-18 = tested on: HOP-18

Measured: GI50

CC1(C)CC(=O)C/C(=N/c2ccc([N+](=O)[O-])cc2)C1
inactive: XF498 > 100 µM | KM-20L2 > 100 µM | RXF 631 > 100 µM | DMS-273 > 100 µM | SNB-78 > 100 µM | M19-MEL 66.2 µM | HOP-18 > 100 µM
